From PMC10739630, “Galidesivir Triphosphate Promotes Stalling of Dengue-2 Virus Polymerase Immediately Prior to Incorporation” (ACS Infectious Diseases, 2023)

What was measured:
Type in all cases: biochemical
[1] = target: ZIKV NS5 (Zika virus, UniProt Q32ZE1); assay: SYTO […] fluorescence RdRp assay, A2-primed, poly(U) template; conditions: read-out: IC50 ^a (μM, mean ± std. dev.)
[2] = target: T1, DENV2 NS5 (Dengue virus 2 Thailand/16681/84, UniProt P29990); assay: as above; conditions: read-out: IC50 ^a (μM, mean ± std. dev.)
[3] = target: T1, DENV2 NS5; conditions: read-out: KM^app for ATP

T1 sequence (P29990 2492-3391 limits assumed): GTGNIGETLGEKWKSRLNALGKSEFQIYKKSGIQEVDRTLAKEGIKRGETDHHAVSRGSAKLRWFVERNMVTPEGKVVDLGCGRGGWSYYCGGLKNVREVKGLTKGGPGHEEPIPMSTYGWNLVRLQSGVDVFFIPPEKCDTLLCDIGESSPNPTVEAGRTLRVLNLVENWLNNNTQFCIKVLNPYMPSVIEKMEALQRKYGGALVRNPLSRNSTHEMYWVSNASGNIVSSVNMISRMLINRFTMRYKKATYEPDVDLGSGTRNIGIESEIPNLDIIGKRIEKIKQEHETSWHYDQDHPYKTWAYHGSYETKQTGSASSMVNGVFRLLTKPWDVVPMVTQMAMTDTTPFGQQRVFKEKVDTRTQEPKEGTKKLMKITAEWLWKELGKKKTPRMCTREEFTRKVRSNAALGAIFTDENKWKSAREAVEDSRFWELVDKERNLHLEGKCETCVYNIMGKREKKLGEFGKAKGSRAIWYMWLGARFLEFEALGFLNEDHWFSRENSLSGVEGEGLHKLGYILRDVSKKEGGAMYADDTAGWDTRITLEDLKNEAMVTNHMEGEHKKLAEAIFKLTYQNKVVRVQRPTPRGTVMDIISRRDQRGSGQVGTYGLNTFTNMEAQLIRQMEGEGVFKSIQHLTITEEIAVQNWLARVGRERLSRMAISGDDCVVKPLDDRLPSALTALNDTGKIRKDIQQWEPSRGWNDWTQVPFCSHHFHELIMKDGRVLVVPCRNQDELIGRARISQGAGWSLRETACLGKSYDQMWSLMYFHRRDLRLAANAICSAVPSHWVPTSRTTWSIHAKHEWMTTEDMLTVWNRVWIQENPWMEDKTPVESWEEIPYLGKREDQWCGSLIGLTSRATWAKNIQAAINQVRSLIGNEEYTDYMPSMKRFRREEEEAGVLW
Sequence of ZIKV NS5 (Q32ZE1 2517-3419): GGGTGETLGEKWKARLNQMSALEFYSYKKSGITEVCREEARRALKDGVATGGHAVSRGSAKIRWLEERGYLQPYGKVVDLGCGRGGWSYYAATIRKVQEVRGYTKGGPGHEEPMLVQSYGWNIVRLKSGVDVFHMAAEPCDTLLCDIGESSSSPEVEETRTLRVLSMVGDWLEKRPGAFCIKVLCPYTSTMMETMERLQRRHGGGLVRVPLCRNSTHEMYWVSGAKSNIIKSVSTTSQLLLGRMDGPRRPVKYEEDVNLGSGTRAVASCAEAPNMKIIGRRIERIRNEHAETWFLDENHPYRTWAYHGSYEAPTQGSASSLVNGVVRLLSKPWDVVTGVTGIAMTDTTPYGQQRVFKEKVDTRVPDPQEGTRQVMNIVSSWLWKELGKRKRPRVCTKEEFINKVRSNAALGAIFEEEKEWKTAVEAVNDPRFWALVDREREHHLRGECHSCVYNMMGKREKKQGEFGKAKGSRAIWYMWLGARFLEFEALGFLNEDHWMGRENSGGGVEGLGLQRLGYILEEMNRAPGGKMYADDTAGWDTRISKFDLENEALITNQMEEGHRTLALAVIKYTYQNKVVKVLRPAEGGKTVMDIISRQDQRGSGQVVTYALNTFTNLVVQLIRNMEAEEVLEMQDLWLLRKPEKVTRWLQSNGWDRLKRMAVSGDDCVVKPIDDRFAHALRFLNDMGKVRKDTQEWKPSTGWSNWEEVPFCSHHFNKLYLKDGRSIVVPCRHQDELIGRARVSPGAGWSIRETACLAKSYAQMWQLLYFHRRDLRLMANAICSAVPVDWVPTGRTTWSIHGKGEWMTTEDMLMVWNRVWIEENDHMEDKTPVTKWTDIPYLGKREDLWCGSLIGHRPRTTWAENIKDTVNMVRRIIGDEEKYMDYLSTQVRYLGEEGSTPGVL

Structure (SMILES): Nc1ncnc2c1ncn2[C@@H]1O[C@H](COP(=O)(O)OP(=O)(O)OP(=O)(O)O)C[C@H]1O [3′-dATP, reference compound]
- IC50 [1]: 0.06 ± 0.02 µM
- IC50 [2]: 0.48 ± 0.05 µM

Structure (SMILES): Nc1ncnc2c([C@@H]3N[C@H](COP(=O)(O)OP(=O)(O)OP(=O)(O)O)[C@@H](O)[C@H]3O)c[nH]c12 [Gal-TP]
- IC50 [1]: 47 ± 5 µM
- IC50 [2]: 42 ± 12 µM

Structure (SMILES): Nc1ncnc2c1ncn2[C@@H]1O[C@H](COP(=O)(O)OP(=O)(O)OP(=O)(O)O)[C@@H](O)[C@H]1O [ATP]
- Km [3]: 430 µM
